Data as given in patent publication US20220402925A1, “COMPOUNDS AND METHODS FOR THE TREATMENT OF CYSTIC FIBROSIS” (Flatley Discovery Lab, LLC, priority 2019, published 2022).

Molecular target: T1, F508del CFTR (Homo sapiens, UniProt P13569, DEL508-508)
T1 construct: Primary CF airway epithelial cells were obtained from the UNC Cystic Fibrosis Tissue Procurement and Cell Culture Core; host or cells: primary CF airway epithelial cells
Assay: Equivalent current assay in primary CF airway epithelial cells (Corrector Activity, NAUC normalized to 3 μM VX809)
Format: cell-based
Conditions: NAUC as % of positive control (VX-809)
Summary of the method: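 Differentiated primary CF airway cells treated basolaterally 24 h at 37° C with compound (0.1% DMSO). Equivalent current recorded after 5 μM benzamil, stimulation with 10 μM forskolin plus 1 μM VX-770 or 3 μM FDL176, and block by 20 μM CFTR-172; vehicle-subtracted AUC normalized to 3 μM VX809; EC50 from sigmoid fit, Hill slope 1.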

T1 sequence (P13569 with tags, fused parts or gaps DEL508-508): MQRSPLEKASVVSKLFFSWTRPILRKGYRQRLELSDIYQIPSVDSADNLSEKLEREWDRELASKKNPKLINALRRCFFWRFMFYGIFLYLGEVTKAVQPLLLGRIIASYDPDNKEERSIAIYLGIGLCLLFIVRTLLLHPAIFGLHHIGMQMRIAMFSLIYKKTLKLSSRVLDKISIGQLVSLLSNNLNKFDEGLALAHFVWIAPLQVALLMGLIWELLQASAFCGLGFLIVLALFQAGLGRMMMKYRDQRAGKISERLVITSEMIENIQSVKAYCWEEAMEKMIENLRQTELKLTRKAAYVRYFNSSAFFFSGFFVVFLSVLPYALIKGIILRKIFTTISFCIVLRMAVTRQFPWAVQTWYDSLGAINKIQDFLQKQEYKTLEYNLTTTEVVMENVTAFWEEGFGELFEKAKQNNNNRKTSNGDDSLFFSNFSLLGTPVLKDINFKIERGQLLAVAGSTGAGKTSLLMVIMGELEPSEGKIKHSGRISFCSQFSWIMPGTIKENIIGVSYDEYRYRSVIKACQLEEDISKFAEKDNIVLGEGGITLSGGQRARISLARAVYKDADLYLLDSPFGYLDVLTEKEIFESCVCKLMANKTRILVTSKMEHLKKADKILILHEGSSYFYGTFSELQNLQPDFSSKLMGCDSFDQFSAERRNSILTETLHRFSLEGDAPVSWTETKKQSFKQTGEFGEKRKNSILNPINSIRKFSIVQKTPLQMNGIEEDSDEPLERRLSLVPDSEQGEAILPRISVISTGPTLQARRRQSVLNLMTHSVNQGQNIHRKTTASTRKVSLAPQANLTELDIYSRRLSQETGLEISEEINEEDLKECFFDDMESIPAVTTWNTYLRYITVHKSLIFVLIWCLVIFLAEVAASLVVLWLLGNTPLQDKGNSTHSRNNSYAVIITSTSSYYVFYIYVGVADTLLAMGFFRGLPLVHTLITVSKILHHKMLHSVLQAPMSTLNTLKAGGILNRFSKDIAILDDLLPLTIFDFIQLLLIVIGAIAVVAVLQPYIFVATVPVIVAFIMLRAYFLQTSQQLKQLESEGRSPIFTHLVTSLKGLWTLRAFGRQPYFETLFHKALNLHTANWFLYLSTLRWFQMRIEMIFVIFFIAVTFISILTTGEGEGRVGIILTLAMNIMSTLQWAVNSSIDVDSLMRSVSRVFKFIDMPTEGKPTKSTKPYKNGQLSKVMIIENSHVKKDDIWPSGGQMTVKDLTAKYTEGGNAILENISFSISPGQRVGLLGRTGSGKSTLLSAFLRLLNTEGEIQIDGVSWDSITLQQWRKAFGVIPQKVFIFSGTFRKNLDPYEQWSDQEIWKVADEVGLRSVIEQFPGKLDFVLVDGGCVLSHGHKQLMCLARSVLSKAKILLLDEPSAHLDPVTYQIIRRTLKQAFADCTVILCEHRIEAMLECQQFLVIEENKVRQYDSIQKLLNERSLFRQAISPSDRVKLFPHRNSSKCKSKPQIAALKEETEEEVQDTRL

Corr Activity (NAUC) | SMILES
++ (NAUC 70-40% of positive control) | CC(C)(C)NC(=O)c1cc2c(=O)n(CC(=O)N3CCCc4c3ccc3c4OC(F)(F)O3)nc(-c3cccc(Cl)c3)c2o1 [Example 128]
+++ (NAUC>70% of positive control) | CCN(C(=O)Cn1nc(-c2cc(Cl)cc(OCc3ccccc3)c2)c2[nH]cnc2c1=O)c1ccc2c(c1)OC(F)(F)O2 [Example 273]
+++ (NAUC>70% of positive control) | O=C(Cn1nc(-c2cccc(Cl)c2)c2[nH]cnc2c1=O)N1CCCc2c1ccc1c2OC(F)(F)O1 [Example 374]
++ (NAUC 70-40% of positive control) | O=C(Cn1nc(-c2cc(F)cc(C(F)(F)F)c2)c2[nH]cnc2c1=O)N(c1ccc2c(c1)OC(F)(F)O2)C1CC1 [Example 391]
+++ (NAUC>70% of positive control) | N#Cc1cc(-c2nn(CC(=O)N(c3ccc4c(c3)OC(F)(F)O4)C3CC3)c(=O)c3nc[nH]c23)ccc1N1CCC(F)C1 (centres unmarked) [Example 488]
+++ (NAUC>70% of positive control) | CCN(C(=O)Cn1nc(-c2cccc(C#N)c2)c2oc(CN3CCCCC3)cc2c1=O)c1ccc2c(c1)OC(F)(F)O2 [Example 201]
+++ (NAUC>70% of positive control) | CCN(C(=O)Cn1nc(-c2cc(C#N)cc(OC)c2)c2[nH]cnc2c1=O)c1ccc2c(c1)OC(F)(F)O2 [Example 286]
+++ (NAUC>70% of positive control) | COc1ccc(-c2nn(CC(=O)N(c3ccc4c(c3)OC(F)(F)O4)C3CC3)c(=O)c3nc[nH]c23)cc1C#N [Example 464]
+++ (NAUC>70% of positive control) | Cc1cc2c(cc1N(C)C(=O)Cn1nc(-c3cc(F)cc(C#N)c3)c3oc(C(=O)NC(C)(C)C)cc3c1=O)OC(F)(F)O2 [Example 135]
+++ (NAUC>70% of positive control) | CCN(C(=O)Cn1nc(-c2cc(Cl)cc(C#N)c2)c2oc(C(F)F)cc2c1=O)c1cc2c(cc1C)OC(F)(F)O2 [Example 194]
+ (NAUC<40% of positive control) | CCN(C(=O)Cn1nc(-c2cc(OC)cc(OC(F)(F)F)c2)c2[nH]cnc2c1=O)c1ccc2c(c1)OC(F)(F)O2 [Example 274]
++ (NAUC 70-40% of positive control) | CN(C(=O)Cn1nc(-c2cccc(C#N)c2)c2oc(CN3CCCC3)cc2c1=O)c1ccc2c(c1)OC(F)(F)O2 [Example 200]
+++ (NAUC>70% of positive control) | CCN(C(=O)Cn1nc(-c2cccc(OC(F)(F)F)c2)c2occc2c1=O)c1ccc2c(c1)OC(F)(F)O2 [Example 91]
+++ (NAUC>70% of positive control) | CCN(C(=O)Cn1nc(-c2cccc(C#N)c2)c2oc(C(=O)NC(C)(C)C)cc2c1=O)c1ccc2c(c1)OC(F)(F)O2 [Example 121]
+++ (NAUC>70% of positive control) | CCN(C(=O)Cn1nc(-c2cc(F)cc(Cl)c2)c2oc(C3CCC3)cc2c1=O)c1ccc2c(c1)OC(F)(F)O2 [Example 236]
++ (NAUC 70-40% of positive control) | CCN(C(=O)Cn1nc(-c2cc(F)cc(C(F)(F)F)c2)c2[nH]cnc2c1=O)c1ccc2c(c1)OC(F)(F)O2 [Example 268]
+++ (NAUC>70% of positive control) | CCN(C(=O)Cn1nc(-c2cccc(C#N)c2)c2oc(C(F)F)cc2c1=O)c1ccc2c(c1)OC(F)(F)O2 [Example 187]
++ (NAUC 70-40% of positive control) | CCN(C(=O)Cn1nc(-c2cc(F)cc(OCC(F)(F)F)c2)c2[nH]cnc2c1=O)c1ccc2c(c1)OC(F)(F)O2 [Example 270]
++ (NAUC 70-40% of positive control) | CCN(C(=O)Cn1nc(-c2cccc(Cl)c2)c2onc(C)c2c1=O)c1ccc2c(c1)OC(F)(F)O2 [Example 18]
+++ (NAUC>70% of positive control) | CN(C(=O)Cn1nc(-c2cccc(C(C)(C)C)c2)c2oc(C(=O)NC(C)(C)C)cc2c1=O)c1ccc2c(c1)OC(F)(F)O2 [Example 126]
+++ (NAUC>70% of positive control) | CCN(C(=O)Cn1nc(-c2cc(C)cc(F)c2)c2occc2c1=O)c1ccc2c(c1)OC(F)(F)O2 [Example 83]
+++ (NAUC>70% of positive control) | Cc1cc(C#N)cc(-c2nn(CC(=O)N(C)c3ccc4c(c3)OC(F)(F)O4)c(=O)c3nc[nH]c23)c1 [Example 247]
+++ (NAUC>70% of positive control) | CN(C(=O)Cn1nc(-c2cccc(F)c2)c2occc2c1=O)c1ccc2c(c1F)OC(F)(F)O2 [Example 108]
++ (NAUC 70-40% of positive control) | CCN(C(=O)Cn1nc(-c2cc(Cl)cc(C#N)c2)c2oc(C(F)F)cc2c1=O)c1ccc2c(c1C)OC(F)(F)O2 [Example 196]
++ (NAUC 70-40% of positive control) | CC(C)(C)NC(=O)c1cc2c(=O)n(CC(=O)N3CCCc4c3ccc3c4OC(F)(F)O3)nc(-c3cccc(C#N)c3)c2o1 [Example 129]

Corr Activity (NAUC) | SMILES
++ (NAUC 70-40% of positive control) | CCN(C(=O)Cn1nc(-c2cc(F)cc(C#N)c2)c2oc(C(F)F)cc2c1=O)c1ccc2c(c1C)OC(F)(F)O2 [Example 195]
+ (NAUC<40% of positive control) | COC(=O)c1cc(Cl)cc(-c2nn(CC(=O)N(c3ccc4c(c3)OC(F)(F)O4)C3CC3)c(=O)c3nc[nH]c23)c1 [Example 390]
+++ (NAUC>70% of positive control) | N#Cc1cc(F)cc(-c2nn(CC(=O)N3CCCc4c3ccc3c4OC(F)(F)O3)c(=O)c3ccoc23)c1 [Example 104]
++ (NAUC 70-40% of positive control) | CCN(C(=O)Cn1nc(-c2cc(Cl)cc(Cl)c2)c2occc2c1=O)c1ccc2c(c1)OC(F)(F)O2 [Example 174]
++ (NAUC 70-40% of positive control) | CN(C(=O)Cn1nc(-c2cccc(C#N)c2)c2oc(C3CC3)cc2c1=O)c1ccc2c(c1)OC(F)(F)O2 [Example 220]
+++ (NAUC>70% of positive control) | Cc1cc2c(=O)n(CC(=O)N(c3ccc4c(c3)OC(F)(F)O4)C3CC3)nc(-c3cc(F)cc(F)c3)c2o1 [Example 78]
++ (NAUC 70-40% of positive control) | Cc1nc2ccc(N(C)C(=O)Cn3nc(-c4cccc(F)c4)c4oc(C(=O)NC(C)C)cc4c3=O)cc2o1 [Example 155]
++ (NAUC 70-40% of positive control) | O=C(Cn1nc(-c2cc(F)cc(F)c2)c2[nH]cnc2c1=O)N(c1ccc2c(c1)OC(F)(F)O2)C1CC1 [Example 380]
+++ (NAUC>70% of positive control) | CCN(C(=O)Cn1nc(-c2cc(F)cc(C#N)c2)c2oc(C(F)F)cc2c1=O)c1ccc2c(c1)OC(F)(F)O2 [Example 191]
++ (NAUC 70-40% of positive control) | Cc1cc2c(cc1N(C)C(=O)Cn1nc(-c3cc(C#N)cc(C(F)F)c3)c3oc(C(=O)NC(C)(C)C)cc3c1=O)OC(F)(F)O2 [Example 145]
+ (NAUC<40% of positive control) | CCN(C(=O)Cn1nc(-c2ccc3c(ccn3Cc3ccccc3)c2)c2[nH]cnc2c1=O)c1ccc2c(c1)OC(F)(F)O2 [Example 296]
+++ (NAUC>70% of positive control) | CC(C)Oc1ccc(-c2nn(CC(=O)N(c3ccc4c(c3)OC(F)(F)O4)C3CC3)c(=O)c3nc[nH]c23)cc1Cl [Example 446]
+++ (NAUC>70% of positive control) | CCN(C(=O)Cn1nc(-c2cc(C)cc(C#N)c2)c2oc(C(=O)NC(C)(C)C)cc2c1=O)c1cc2c(cc1C)OC(F)(F)O2 [Example 133]
+ (NAUC<40% of positive control) | CCN(C(=O)Cn1nc(-c2ccc3c(c2)C(C)(C)c2ccccc2-3)c2[nH]cnc2c1=O)c1ccc2c(c1)OC(F)(F)O2 [Example 293]
++ (NAUC 70-40% of positive control) | O=C(Cn1nc(-c2cc(F)cc(Cl)c2)c2[nH]cnc2c1=O)N(c1ccc2c(c1)OC(F)(F)O2)C1CC1 [Example 378]
++ (NAUC 70-40% of positive control) | CCN(C(=O)Cn1nc(-c2cc(F)cc(C#N)c2)c2occ(C(F)(F)F)c2c1=O)c1cc2c(cc1C)OC(F)(F)O2 [Example 179]
+++ (NAUC>70% of positive control) | CCN(C(=O)Cn1nc(-c2cccc(C#N)c2)c2oc(C(=O)NC(C)(C)C(F)(F)F)cc2c1=O)c1ccc2c(c1)OC(F)(F)O2 [Example 149]
+++ (NAUC>70% of positive control) | O=C(Cn1nc(-c2cccc(F)c2)c2occc2c1=O)N1CCCc2c1ccc1c2OC(F)(F)O1 [Example 162]
++ (NAUC 70-40% of positive control) | CN(C(=O)Cn1nc(-c2cccc(OC(F)(F)F)c2)c2oc(C(=O)NC(C)(C)C)cc2c1=O)c1ccc2c(c1)OC(F)(F)O2 [Example 125]
+++ (NAUC>70% of positive control) | CCN(C(=O)Cn1nc(-c2cc(Cl)cc(OC)c2)c2occc2c1=O)c1ccc2c(c1)OC(F)(F)O2 [Example 112]
+++ (NAUC>70% of positive control) | CN(C(=O)Cn1nc(-c2cccc(C#N)c2)c2oc(C(C)(C)O)cc2c1=O)c1ccc2c(c1)OC(F)(F)O2 [Example 204]
++ (NAUC 70-40% of positive control) | Cc1nc2ccc(N(C)C(=O)Cn3nc(-c4cccc(Cl)c4)c4c(c3=O)CCC4)cc2o1 [Example 48]
++ (NAUC 70-40% of positive control) | CCN(C(=O)Cn1nc(-c2cc(Cl)cc(Cl)c2)c2oc(C3CCC3)cc2c1=O)c1ccc2c(c1)OC(F)(F)O2 [Example 234]
+++ (NAUC>70% of positive control) | Cc1cc(C#N)cc(-c2nn(CC(=O)N(C)c3cc4c(cc3C)OC(F)(F)O4)c(=O)c3nc[nH]c23)c1 [Example 249]
++ (NAUC 70-40% of positive control) | CN(C(=O)Cn1nc(-c2cc(C#N)cc(C(F)(F)F)c2)c2oc(C(=O)NC(C)(C)C)cc2c1=O)c1ccc2c(c1)OC(F)(F)O2 [Example 143]
